Test results as given in US9931444B2, “Polymeric composite materials with antimicrobial and biodegradable properties and uses thereof” (FONDAZIONE ISTITUTO ITALIANO DI TECNOLOGIA, priority 2012, dated 2018).

Legend:
E. Coli = experiment: Minimum bactericidal concentration of iodopovidone; format: cell-based
C. albicans = experiment: Minimum fungicidal concentration of iodopovidone; format: cell-based

iodopovidone showed a minimum bactericidal concentration (E. Coli) of 2000 µM and a minimum fungicidal concentration (C. albicans) of 1000 µM.
